According to patent US20250018014A1, “METHOD FOR TREATING AND/OR PREVENTING REGNASE-1-RELATED DISEASE” (OSAKA UNIVERSITY, priority 2018, published 2025):
Like-named read-outs stand apart in the source and are kept apart here. Residues, ends and D or L forms follow the SMILES beside them.

How the values were obtained:
Assay type in all cases: biochemical
[1] = target: T1, FL_Reg1 (full-length human Regnase-1) phosphorylation by TBK1 (Homo sapiens, UniProt Q5D1E8); assay: Regnase-1 phosphorylation inhibition by compounds (AlphaScreen), TBK1, full-length Regnase-1
T1 construct: made in house; host or cells: Expi293 cells
T1 sequence (Q5D1E8 1-599): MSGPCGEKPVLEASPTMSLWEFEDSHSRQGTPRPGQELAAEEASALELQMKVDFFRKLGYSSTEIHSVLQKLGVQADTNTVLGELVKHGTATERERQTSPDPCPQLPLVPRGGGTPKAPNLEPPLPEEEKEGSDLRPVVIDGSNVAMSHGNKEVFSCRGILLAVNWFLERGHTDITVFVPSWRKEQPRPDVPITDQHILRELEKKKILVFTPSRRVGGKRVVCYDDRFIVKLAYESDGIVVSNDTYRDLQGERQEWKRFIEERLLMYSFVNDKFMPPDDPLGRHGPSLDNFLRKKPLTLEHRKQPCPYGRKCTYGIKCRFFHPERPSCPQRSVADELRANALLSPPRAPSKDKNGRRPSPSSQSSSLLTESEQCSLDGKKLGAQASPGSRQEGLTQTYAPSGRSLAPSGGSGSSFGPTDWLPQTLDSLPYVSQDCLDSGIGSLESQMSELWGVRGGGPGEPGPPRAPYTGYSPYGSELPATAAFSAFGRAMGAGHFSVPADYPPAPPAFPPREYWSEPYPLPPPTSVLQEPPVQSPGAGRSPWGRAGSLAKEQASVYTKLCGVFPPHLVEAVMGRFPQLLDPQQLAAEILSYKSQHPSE
Text: (§1) The full-length sequence of human Regnase-1 (UniProt ID: Q5D1E8) was used to prepare a construct having a FLAG tag on the N-terminal side and a recognition sequence for biotin ligase BirA on the C-terminal side (FL_Reg1) as a target protein. The above-mentioned Regnase-1 was expressed in mammalian Expi293 cells, purified with FLAG M2 agarose, and isolated by gel filtration chromatography. When biotinylation was required, methods from nonpatent documents (BMC biotechnology, 2008,8,41; and Protein Science, 1999,8,921-929) were used. […]
(§2) Using Kinase assay buffer III (manufactured by SignalChem) supplemented with 2 mM DTT, 100 μM sodium vanadate, and 2 mM manganese chloride, kinase (IKKβ (manufactured by SignalChem) or TBK1 (manufactured by SignalChem)) and Regnase-1 were reacted in the presence of 10 μM ATP at room temperature for 2 hours to perform a phosphorylation reaction.
(§3) Phosphorylated Regnase-1 was detected by the AlphaScreen system. After each of the above-mentioned phosphorylated Regnase-1 antibodies was added and reacted at room temperature for one hour, anti-FLAG AlphaLISA Acceptor Beads (manufactured by PerkinElmer) and Protein A AlphaScreen Donor Beads (manufactured by PerkinElmer) were added, and EnVision (manufactured by PerkinElmer) was used to measure the excited luminescence. As a result, phosphorylated Regnase-1 produced by the phosphorylation reaction by kinase was specifically detected, and signals were confirmed to be enhanced in a manner dependent on Regnase-1 and kinase concentrations (FIG. 24).
(§4) After mixing 2 nM of the above-mentioned Regnase-1 and the compound, phosphorylated Regnase-1 produced by the phosphorylation reaction was detected by the AlphaScreen system. As the results, the inhibition rate was calculated from the signals obtained when adding the compound at each concentration, by defining the signal obtained with Regnase-1 alone to be 100% inhibition rate, and the signal obtained when the same amount of solvent (DMSO) is added in place of the compound as 0% inhibition rate. The 50% inhibition concentration (μM) was calculated from the obtained dose response curve (Table 11).

[2] = target: T2, FL_Reg1 (full-length human Regnase-1) phosphorylation by IKKβ (Homo sapiens, UniProt Q5D1E8); assay: Regnase-1 phosphorylation inhibition by compounds (AlphaScreen), IKKβ, full-length Regnase-1
T2 construct: made in house; host or cells: Expi293 cells
T2 sequence (Q5D1E8 1-599): T1 sequence (Q5D1E8 1-599)
Text: as §1, §2, §3, §4

[3] = target: T3, ΔCTD_Reg1 (amino acids 1 to 546 of human Regnase-1) phosphorylation by IKKβ (Homo sapiens, UniProt Q5D1E8); assay: Regnase-1 phosphorylation inhibition by compounds (AlphaScreen), IKKβ, CTD-deficient Regnase-1
T3 construct: made in house; host or cells: Expi293 cells
T3 sequence (Q5D1E8 1-546): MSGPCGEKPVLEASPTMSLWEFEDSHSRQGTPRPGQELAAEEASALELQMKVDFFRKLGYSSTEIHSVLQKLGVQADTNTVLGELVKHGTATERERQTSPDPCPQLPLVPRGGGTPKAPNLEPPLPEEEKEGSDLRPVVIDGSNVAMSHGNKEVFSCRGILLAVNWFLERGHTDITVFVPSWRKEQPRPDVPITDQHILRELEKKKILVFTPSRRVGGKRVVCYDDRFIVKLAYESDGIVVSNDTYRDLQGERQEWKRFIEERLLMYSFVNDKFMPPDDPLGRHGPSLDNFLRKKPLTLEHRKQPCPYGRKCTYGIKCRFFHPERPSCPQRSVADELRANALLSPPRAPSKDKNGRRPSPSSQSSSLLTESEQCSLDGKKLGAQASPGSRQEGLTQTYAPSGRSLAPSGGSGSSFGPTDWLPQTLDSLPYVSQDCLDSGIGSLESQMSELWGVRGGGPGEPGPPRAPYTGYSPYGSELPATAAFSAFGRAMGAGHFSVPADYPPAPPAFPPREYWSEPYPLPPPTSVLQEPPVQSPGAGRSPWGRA
Protocol: Among the full-length human Regnase-1 sequence, the 1st to 546th amino acid sequence was prepared and made into a construct having a FLAG tag on the N-terminal side and a biotin ligase BirA recognition sequence on the C-terminal side (herein, a Regnase-1 lacking the C-terminal domain of Regnase-1 (amino acids 547 to 599 in the case of SEQ ID NO: 2) is referred to as “ΔCTD_Reg1”. “ΔCTD_Reg1” is different from “Regnase-1ΔCTD”, which is a C-terminal domain deletion variant resulting from a frameshift mutation caused by a 1 bp deletion at codon 517, as prepared in Example 13). In addition, the sequence from amino acids 301 to 599 of the full-length human Regnase-1 sequence was designated as C-terminal Regnase-1, and a construct having a FLAG tag on the N-terminal side and a recognition sequence for biotin ligase BirA on the C-terminal side was prepared (Reg1_301-599). The above-mentioned Regnase-1 was expressed in mammalian Expi293 cells, purified with FLAG M2 agarose, and isolated by gel filtration chromatography. When biotinylation was required, methods of nonpatent documents (BMC biotechnology, 2008,8,41; and Protein Science, 1999,8,921-929) were used.
as §2, §3, §4

[4] = Table 11, 2 nM Regnase-1, AlphaScreen, read-out: 50% inhibition concentration, Regnase-1 phosphorylation, FL_Reg1, TBK1
[5] = Table 11, 2 nM Regnase-1, AlphaScreen, read-out: 50% inhibition concentration, Regnase-1 phosphorylation, FL_Reg1, IKKβ
[6] = Table 11, 2 nM Regnase-1, AlphaScreen, read-out: 50% inhibition concentration, Regnase-1 phosphorylation, ΔCTD_Reg1, IKKβ
[7] = Table 13, phosphorylation by TBK1, read-out: Phosphorylation inhibition FL_Reg1, 50% inhibition concentration (TBK1)
[8] = Table 14, phosphorylation by IKKβ, read-out: Phosphorylation inhibition FL_Reg1, 50% inhibition concentration (IKKβ)
[9] = Table 14, phosphorylation by IKKβ, read-out: Phosphorylation inhibition ΔCTD_Reg1, 50% inhibition concentration (IKKβ)

| SMILES | IC50 [1, 4] [µM] | IC50 [2, 5] [µM] | IC50 [3, 6] [µM] | IC50 [1, 7] [µM] | IC50 [2, 8] [µM] | IC50 [3, 9] [µM] |
| --- | --- | --- | --- | --- | --- | --- |
| CC[C@H](C)[C@@H]1NC(=O)[C@H](CCCCN)NC(=O)[C@H](Cc2ccccc2)NC(=O)[C@H](Cc2c[nH]c3ccccc23)NC(=O)[C@H](CO)NC(=O)[C@H](CO)NC(=O)[C@H](CC(N)=O)NC(=O)[C@@H]2CCCN2C(=O)[C@@H](C)N(C)C(=O)C[C@@H](C(=O)N2CCCC2)NC(=O)[C@H](Cc2c[nH]c3ccccc23)NC1=O [PP6] (HELM PEPTIDE1{[C[C@H](C(=O)[*:2])N(C)[*:1]].P.N.S.S.W.F.K.I.W.D.[C1CCN([*:1])C1]}$PEPTIDE1,PEPTIDE1,1:R1-11:R3$$$V2.0) | 13.1 | 17 | 20.3 | – | – | – |
| CC[C@H](C)[C@@H]1NC(=O)[C@H](Cc2c[nH]c3ccccc23)NC(=O)[C@@H](Cc2ccccc2)NC(=O)[C@H](CCCCN)NC(=O)[C@H](C)N(C)C(=O)C[C@@H](C(=O)N2CCCC2)NC(=O)[C@H](CCC(=O)O)NC(=O)[C@H](Cc2ccccc2)NC(=O)[C@H](CO)NC(=O)[C@H](Cc2c[nH]cn2)NC(=O)[C@H](Cc2c[nH]cn2)NC1=O [PP20] (HELM PEPTIDE1{[meA].K.[dF].W.I.H.H.S.F.E.D.[C1CCN([*:1])C1]}$PEPTIDE1,PEPTIDE1,1:R1-11:R3$$$V2.0) | – | – | – | 38.5 | 24.7 | > 62.1 |
| CC[C@H](C)[C@@H]1NC(=O)[C@H](CO)NC(=O)[C@H](CCCNC(=N)N)NC(=O)[C@H](Cc2ccc(O)cc2)NC(=O)[C@H](Cc2ccc(O)cc2)NC(=O)[C@H](Cc2c[nH]c3ccccc23)NC(=O)[C@H](CO)NC(=O)[C@H](CCC(N)=O)NC(=O)[C@H](Cc2ccc(O)cc2)NC(=O)[C@H](CC(N)=O)NC(=O)[C@H](C)N(C)C(=O)C[C@@H](C(=O)N2CCCC2)NC(=O)[C@H](Cc2c[nH]c3ccccc23)NC1=O [PP10] (HELM PEPTIDE1{[meA].N.Y.Q.S.W.Y.Y.R.S.I.W.D.[C1CCN([*:1])C1]}$PEPTIDE1,PEPTIDE1,1:R1-13:R3$$$V2.0) | – | – | – | 0.2 | 0.5 | – |
| CC[C@H](C)[C@@H]1NC(=O)[C@H](CCCCN)NC(=O)[C@H](Cc2ccc(O)cc2)NC(=O)[C@H](Cc2ccccc2)NC(=O)[C@H](C(C)C)NC(=O)[C@H](C)N(C)C(=O)C[C@@H](C(=O)N2CCCC2)NC(=O)[C@H](Cc2c[nH]c3ccccc23)NC(=O)[C@H](CC(N)=O)NC(=O)[C@H](Cc2ccc(O)cc2)NC(=O)[C@H](Cc2c[nH]c3ccccc23)NC1=O [PP19] (HELM PEPTIDE1{[meA].V.F.Y.K.I.W.Y.N.W.D.[C1CCN([*:1])C1]}$PEPTIDE1,PEPTIDE1,1:R1-11:R3$$$V2.0) | – | – | – | 3.7 | 5.4 | – |
| CC[C@H](C)[C@@H]1NC(=O)[C@H](CC(N)=O)NC(=O)[C@H](Cc2ccc(O)cc2)NC(=O)[C@H](Cc2c[nH]c3ccccc23)NC(=O)[C@H](CO)NC(=O)[C@H](CC(N)=O)NC(=O)[C@H](CO)NC(=O)[C@H](Cc2ccccc2)NC(=O)[C@H](CC(N)=O)NC(=O)[C@H](C)N(C)C(=O)C[C@@H](C(=O)N2CCCC2)NC(=O)[C@H](Cc2c[nH]c3ccccc23)NC1=O [PP16] (HELM PEPTIDE1{[meA].N.F.S.N.S.W.Y.N.I.W.D.[C1CCN([*:1])C1]}$PEPTIDE1,PEPTIDE1,1:R1-12:R3$$$V2.0) | – | – | – | 52.4 | 20.6 | – |

Results, then the molecule that gave them:

| IC50 [1, 4] [µM] | IC50 [2, 5] [µM] | IC50 [3, 6] [µM] | IC50 [1, 7] [µM] | IC50 [2, 8] [µM] | IC50 [3, 9] [µM] | SMILES |
| --- | --- | --- | --- | --- | --- | --- |
| – | – | – | 8.5 | 5.6 | 31 | CC[C@H](C)[C@@H]1NC(=O)[C@H](CC(N)=O)NC(=O)[C@H]([C@@H](C)CC)NC(=O)[C@H](Cc2ccc(O)cc2)NC(=O)[C@H](Cc2c[nH]c3ccccc23)NC(=O)[C@H](CO)NC(=O)[C@H](CC(N)=O)NC(=O)[C@H](C)N(C)C(=O)C[C@@H](C(=O)N2CCCC2)NC(=O)[C@H](Cc2c[nH]cn2)NC(=O)CNC(=O)[C@H](Cc2c[nH]c3ccccc23)NC1=O [PP15] (HELM PEPTIDE1{[meA].N.S.W.Y.I.N.I.W.G.H.D.[C1CCN([*:1])C1]}$PEPTIDE1,PEPTIDE1,1:R1-12:R3$$$V2.0) |
| 24.2 | 23.6 | 20.4 | – | – | – | CC[C@H](C)[C@@H]1NC(=O)[C@H](CC(N)=O)NC(=O)[C@H](Cc2ccc(O)cc2)NC(=O)[C@H](Cc2c[nH]c3ccccc23)NC(=O)[C@H](C)NC(=O)[C@H](CC(N)=O)NC(=O)[C@H](CO)NC(=O)[C@H](Cc2c[nH]cn2)NC(=O)[C@H](C)N(C)C(=O)C[C@@H](C(=O)N2CCCC2)NC(=O)[C@H](Cc2c[nH]c3ccccc23)NC1=O [PP5] (HELM PEPTIDE1{[meA].H.S.N.A.W.Y.N.I.W.D.[C1CCN([*:1])C1]}$PEPTIDE1,PEPTIDE1,1:R1-11:R3$$$V2.0) |
| – | – | – | 13.5 | 19.6 | – | CC[C@H](C)[C@@H]1NC(=O)[C@H](CCCCN)NC(=O)[C@H](Cc2ccc(O)cc2)NC(=O)[C@H](Cc2c[nH]c3ccccc23)NC(=O)[C@H](CO)NC(=O)[C@H](CC(N)=O)NC(=O)[C@H](C)N(C)C(=O)C[C@@H](C(=O)N2CCCC2)NC(=O)[C@H](CC(C)C)NC(=O)CNC(=O)[C@H](Cc2c[nH]c3ccccc23)NC1=O [PP21] (HELM PEPTIDE1{[meA].N.S.W.Y.K.I.W.G.L.D.[C1CCN([*:1])C1]}$PEPTIDE1,PEPTIDE1,1:R1-11:R3$$$V2.0) |
| – | – | – | 24.3 | 15 | – | CC[C@H](C)[C@@H]1NC(=O)[C@H](CCCNC(=N)N)NC(=O)[C@H](Cc2ccc(O)cc2)NC(=O)[C@H](Cc2c[nH]c3ccccc23)NC(=O)[C@H](CO)NC(=O)[C@H](CC(N)=O)NC(=O)[C@H](C)N(C)C(=O)C[C@@H](C(=O)N2CCCC2)NC(=O)[C@H](CC(C)C)NC(=O)CNC(=O)[C@H](Cc2c[nH]c3ccccc23)NC1=O [PP22] (HELM PEPTIDE1{[meA].N.S.W.Y.R.I.W.G.L.D.[C1CCN([*:1])C1]}$PEPTIDE1,PEPTIDE1,1:R1-11:R3$$$V2.0) |
